How the values were obtained:
[1] = molecular target: T1, Dihydrofolate reductase (Homo sapiens, UniProt P00374); experiment: Inhibition of dihydrofolate reductase (unknown origin) using dihydrofolic acid as substrate by spectrophotometry
T1 sequence (P00374 whole entry): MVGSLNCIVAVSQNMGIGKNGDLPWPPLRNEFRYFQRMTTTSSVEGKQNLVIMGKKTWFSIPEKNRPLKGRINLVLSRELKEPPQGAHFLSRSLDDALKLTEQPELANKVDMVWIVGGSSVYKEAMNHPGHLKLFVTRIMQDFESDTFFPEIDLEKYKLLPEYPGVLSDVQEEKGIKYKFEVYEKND

[2] = tested on: Enterococcus faecalis; experiment: Antibacterial activity against Streptococcus faecalis ATCC 8043; assay type: organism-based
[3] = tested on: Enterococcus faecalis; experiment: Antibacterial activity against Streptococcus faecalis ATCC 8043 at 1 ug/ml; assay type: organism-based

| Structure (SMILES) | IC50 [1] | Activity [2] | Activity [3] |
| --- | --- | --- | --- |
| CC1=Nc2c(O)nc(N)nc2OC1c1ccccc1 (configuration not stated) | 740 µM | Toxic | – |
| Nc1nc(N)c2c(n1)OCC(c1ccccc1)=N2 | 168 µM | Toxic | – |
| CN(Cc1cnc2nc(N)nc(N)c2n1)c1ccc(C(=O)N[C@@H](CCC(=O)O)C(=O)O)cc1 [METHOTREXATE] | – | – | Toxic |
| CC1=Nc2c(N)nc(N)nc2OC1C (configuration not stated) | 903 µM | Toxic | – |
| CC1Oc2nc(N)nc(O)c2N=C1c1ccccc1 (configuration not stated) | – | Toxic | – |
| Nc1nc(O)c2c(n1)OCC(CCc1ccccc1)=N2 | – | Toxic | – |
| CC1=Nc2c(O)nc(N)nc2OC1 | 242 µM | Toxic | – |
| Nc1nc(O)c2c(n1)OCC(CCCCc1ccccc1)=N2 | – | Toxic | – |
| CC1=Nc2c(O)nc(N)nc2OC1C (configuration not stated) | 377 µM | Toxic | – |
| Nc1nc(O)c2c(n1)OCC(Cc1ccccc1)=N2 | – | Toxic | – |
| Nc1nc(O)c2c(n1)OC(c1ccccc1)C(c1ccccc1)=N2 (configuration not stated) | – | Toxic | – |
| Nc1nc(N)c2c(n1)OC(c1ccccc1)C(c1ccccc1)=N2 (configuration not stated) | – | Toxic | – |
| Nc1nc(O)c2c(n1)OCC(c1ccccc1)=N2 | 57 µM | Toxic | – |
| CCCCCC1=Nc2c(O)nc(N)nc2OC1 | 11 µM | Toxic | – |
| Nc1nc(O)c2c(n1)OCC(CCCc1ccccc1)=N2 | – | Toxic | – |

From ChEMBL document CHEMBL3227969, “Synthesis and biological activity of 8-oxadihydropteridines” (J Med Chem, 1979)
